Data taken from patent US20240325544A1, “CATIONIC LIPID FOR COVALENT MODIFICATION OF PEPTIDES” (PharmalN Corporation, priority 2023, published 2024).
Bridge positions count the residues as written; N and C are the ends. Square brackets hold non-standard residues; d marks the D form. Peptide text beside a SMILES is read from it. * marks the point of attachment. Palmitoyl = CCCCCCCCCCCCCCCC(=O)*; Dap = NC[C@H](N)C(=O)O; AEEA = NCCOCCOCC(=O)O

How the values were obtained:
NPR-C = target: T1, NPR-C (Homo sapiens, UniProt P17342); test: cAMP baseline levels in HeLa cells (FIG. 13); type: cell-based; settings: 10 μg/mL, 10 minutes, 1 mM IBMX
T1 construct: HeLa cells (known to express NPR-C); host or cells: HeLa cells
T1 sequence (P17342 27-541): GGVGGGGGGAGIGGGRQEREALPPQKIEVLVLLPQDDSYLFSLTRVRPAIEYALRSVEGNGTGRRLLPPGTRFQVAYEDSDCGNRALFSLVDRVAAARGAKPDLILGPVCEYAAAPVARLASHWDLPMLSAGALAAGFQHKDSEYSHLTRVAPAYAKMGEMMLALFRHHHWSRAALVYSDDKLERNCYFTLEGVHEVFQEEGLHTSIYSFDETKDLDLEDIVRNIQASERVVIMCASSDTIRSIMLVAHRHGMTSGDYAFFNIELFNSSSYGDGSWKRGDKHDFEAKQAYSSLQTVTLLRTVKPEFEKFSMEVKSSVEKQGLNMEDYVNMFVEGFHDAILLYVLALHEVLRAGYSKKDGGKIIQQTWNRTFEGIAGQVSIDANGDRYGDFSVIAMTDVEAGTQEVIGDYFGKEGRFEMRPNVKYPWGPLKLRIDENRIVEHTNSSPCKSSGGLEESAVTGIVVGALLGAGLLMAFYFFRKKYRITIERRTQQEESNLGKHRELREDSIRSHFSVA
Method: In this study, HeLa cells were cultured in Dulbecco modified Eagle medium (DMEM) supplemented with 10% FBS under 100% humidity and 5% CO2 at 37° C. The cells were harvested and suspended at a concentration of 10^7 cells/mL in ENGS and 5 uL of the cell suspension was added to each well of a 96-well low-adhesion plate. The cells (n=4 wells) were then treated with 5 uL of SEQ ID NO: 31 (final concentration of 10 μg/mL) in ENGS with 1 mM IBMX for 10 minutes. cAMP levels were evaluated using a cAMP assay kit (PerkinElmer, Waltham, MA, USA, #62AM4PEB) in accordance with its manufacture's protocol with a PerkinElmer plate reader. Statistical analysis was performed with GraphPad Prism against untreated control wells (n=4 wells) * P<0.05. The NPR-C receptor has been implicated in inhibiting adenylate cyclase activity, which would lead to a decrease in cyclic adenosine monophosphate (cAMP) production.
In vitro protocol: HeLa cells were purchased from ATCC (Manassas, VA, USA). […] Then, the cells (n=4 wells) were treated with 5 uL of SEQ ID NO: 31 (final concentration of 10 μg/mL) in ENGS with 1 mM IBMX (Fujifilm, Tokyo, Japan, #099-03411) for 10 minutes. cAMP levels were evaluated using a cAMP assay kit (PerkinElmer, Waltham, MA, USA, #62AM4PEB) in accordance with its manufacture's protocol with a plate reader (PerkinElmer, Waltham, MA, USA, #Nivo). […]

MC38 colon cancer cells = test: Subcutaneous mouse model of colon cancer using MC38 cells (FIG. 12); type: in vivo, mice; settings: monotherapy, 0.3 mg/kg SC, 5 days on, 2 days off, 3 cycles; Day 22
Method: FIGS. 12A-12B. […] Error bars represent standard error of the mean. FIG. 12A) A diagram of the dose schedule for administration of immune checkpoint inhibitor (anti-tigit Ab) and SEQ ID NO: 31. FIG. 12 B) Tumor growth kinetics of 6-week-old male C57BL/6J mice (n=8-9 per group) that were subcutaneously inoculated with MC38 colon cancer cells (1,000,000 cells/mouse) in right flank. Starting from Day 4 post-inoculation, anti-tigit Ab was administered intraperitoneally at 5 mg/kg twice a week for 2 cycles; SEQ ID NO: 31 was administered subcutaneously at a bolus dose of 0.3 mg/kg (0.1 μmol/kg) once daily for 5 days (5 days on, 2 days off) for 3 cycles; or a combination of anti-tigit Ab (5 mg/kg IP twice a week; 2 cycles) and SEQ ID NO: 31 (0.3 mg/kg SC once a day for 5 days on and 2 days off; 3 cycles). The control group, which received only buffer, was dosed in the same manner as SEQ ID NO: 31 to establish the baseline tumor growth kinetics. […]
Animal care and treatment: Male C57BL/6J mice (6 weeks-old) were purchased from Kyudo (Saga, Japan) and maintained under a 12-hour light/12-hour dark cycle with free access to water and standard mouse diet (MF diet; Oriental Yeast Co., Ltd, Tokyo Japan). […] Tumor sizes were measured using calipers on Days 4, 7, 14, and Day 22 post-inoculation. […]

## CCCCCCCCCCCCCCCC(=O)NCCOCCOCC(=O)NCCOCCOCC(=O)NCCOCCOCC(=O)N[C@@H](CN)C(=O)N[C@@H](CN)C(=O)NCC(=O)N[C@@H](CC(C)C)C(=O)N[C@@H](CO)C(=O)N[C@@H](CCCCN)C(=O)NCC(=O)N[C@H]1CSSC[C@@H](C(=O)O)NC(=O)CNC(=O)[C@H](CC(C)C)NC(=O)CNC(=O)[C@H](CO)NC(=O)[C@H](CCC(N)=O)NC(=O)[C@H](CO)NC(=O)CNC(=O)[C@H]([C@@H](C)CC)NC(=O)[C@H](CCCNC(=N)N)NC(=O)[C@H](CC(=O)O)NC(=O)[C@H](CC(C)C)NC(=O)[C@H](CCCCN)NC(=O)[C@H](CC(C)C)NC(=O)CNC(=O)[C@H](Cc2ccccc2)NC1=O [SEQ ID NO: 31] ({Palmitoyl-AEEA-AEEA-AEEA}-[Dap][Dap]GLSKGCFGLKLDRIGSQSGLGC-OH; disulfide 8-24; C-terminus assumed)
NPR-C
  cAMP baseline levels of HeLa cells: changes (inhibition) of cAMP baseline levels
MC38 colon cancer cells
  Tumor volume and cancer burden compared to the Control group: significant decrease in tumor volume and cancer burden
